Reference: patent publication US7642369B2, “Epoxyketone-based immunoproteasome inhibitors” (University of Kentucky Research Foundation, priority 2006, dated 2010)
“Also recorded” adds a separate entry of the source. Read-outs that look alike come from different tables or passages of the source.

Columns and labels:
[1] = test system: proteasome subunits LMP7/X and LMP2; test: Competition screening assay in EL4 cells with biotin-dihydroeponemycin probe, streptavidin-HRP western blot; type: binding, Murine; settings: for Proteasome subunit binding and specificity, competition against biotin-dihydroeponemycin labelling: EL4 cells, 30 min pre-incubation, 1 hr probe, western blot
Description: (§1) Med. Chem. Lett. 9, 3335-3340 (1999) (herein incorporated by reference); and “Towards Immunoproteasome-Specific Inhibitors: An Improved Synthesis of Dihydroeponemycin.” Specifically, various concentrations of these compounds were pre-incubated in EL4 cells at 37° C. for 30 min. […] After cells were lysed, whole cell lysates were analyzed using 12% SDS-PAGE and transferred to PVDF membranes. Biotinylated proteins were then visualized using streptavidin-horseradish peroxidase (HRP) and enhanced chemiluminescence (ECL).
(§2) The western blots were performed using EL4 cells pre-incubated with proteasome inhibitors for 30 min before treating with biotinylated compounds. After 1 hr incubation, cells were lysed, and analyzed by western blot using streptavidin-HRP and ECL.
Similar competition assays were performed to screen for immunoproteasome inhibitors in a EL4 cell model system. EL4 cell system was chosen since these cells highly express catalytic subunits of both the constitutive and immunoproteasomes.
(§3) Cell Culture and Screening Assay: Murine lymphoma EL4 (ATCC) cells were grown in RPMI medium (Gibco), 10% fetal bovine serum and 1% penicillin and streptomycin at […] in a 5% CO2 incubator. […] The cells were then incubated for an additional 1 hour. Cell lysates were analyzed by 12% SDS-PAGE and transferred to PVDF membrane. Proteins that were covalently modified by biotinylated compounds were visualized by enhanced chemiluminescence using streptavidin conjugated horseradish peroxidase (Sigma-Aldrich) or anti-LMP2 (Affinity BioReagents) and Biomax X-ray film (Kodak).

20S immunoproteasome = test: Enzyme kinetics: inhibition of chymotrypsin-like activity of purified 20S immunoproteasome, fluorogenic substrate Suc-Leu-Leu-Val-Tyr-AMC; type: biochemical, bovine; settings: for Kobs/[I], 20S immunoproteasome: purified 20S immunoproteasome; for Relative selectivity: immunoproteasome/regular proteasome, normalized against epoxomicin
Description: (§4) Since LMP2 is a major catalytic subunit responsible for chymotrypsin-like activity, inactivation of the LMP2 subunit inhibits proteolytic activity of immunoproteasome. […] Enzyme kinetics experiments were also carried out with the purified 20S constitutive proteasome as control.
(§5) Enzyme kinetics were performed by measuring the chymotrypsin-like activity of 20S immunoproteasome and regular proteasome in the presence of compound 15 using a fluorogenic peptide substrate.
(§6) Enzyme Kinetic Studies: kassociation values were determined as follows. Inhibitors were mixed with a fluorogenic peptide substrate and assay buffer [20 mM Tris (pH 8.0), 0.5 mM EDTA, and 0.035% SDS] in a 96-well plate. The chymotrypsin-like activity was assayed using the fluorogenic peptide substrates Suc-Leu-Leu-Val-Tyr-AMC (Sigma-Aldrich). Hydrolysiswas initiated by the addition of bovine 20S proteasome or immunoproteasome (Biomol International), and the reaction was followed by fluorescence (360-nm excitation/460-nm detection) using a Microplate Fluorescence Reader (FL600; Bio-Tek Instruments, Inc., Winnoski, Vt.) employing the software KC4 v.2.5 (Bio-Tek Instruments, Inc., Winooski, Vt.). Reactions were allowed to proceed for 60-90 min, and fluorescence data were collected every 1 min. Fluorescence was quantified as arbitrary units and progression curves were plotted for each reaction as a function of time. kobserved/[I] values were obtained using PRISM program by nonlinear least squares fit of the data to the following equation: fluorescence=vst+[(v0−vs)/kobserved][1−exp(−kobserved t)], where v0 and vs are the initial and final velocities, respectively, and kobserved is the reaction rate constant. […] Reactions were performed using inhibitor concentrations that were <100-fold of those of the proteasome assayed.

20S regular proteasome = target: T1, 20S regular proteasome (Bos taurus, UniProt Q2TBX6+Q32KL2); test: Enzyme kinetics: inhibition of chymotrypsin-like activity of purified 20S constitutive (regular) proteasome, fluorogenic substrate Suc-Leu-Leu-Val-Tyr-AMC; type: biochemical, bovine; settings: for kinact/KI: read-out: Kobs/[I], 20S regular proteasome
T1 construct: purchased Biomol International
Description: as §4, §5, §6

LMP2 subunit = target: T2, LMP2 subunit (Mus musculus, UniProt O35955+P28076); test: LMP2 mobility shift in EL4 cells, western blot with anti-LMP2 antibody; type: binding, Murine; settings: 1 hr at 37° C.; for Covalent modification of LMP2, mobility shift of adduct on SDS PAGE: anti-LMP2 western blot
T2 construct: sufficient to modify LMP2 subunits present in cells; endogenous in cells; host or cells: EL4 murine lymphoma cells (ATCC)
Description: The mobility shift of LMP2:15 adduct was investigated to further verify that compound 15 covalently modifies the LMP2 subunit (FIG. 5). After EL4 cells were incubated with compound 15 or assay probes (Biotin-EPX and Biotin-EPN) for 1 hr at 37° C., cells were lysed and boiled for 15 min. Whole cell proteins were then analyzed by western blot using anti-LMP2 antibody.
Since molecular weights of the LMP2 subunit are increased by 828.08 (for biotin-epoxomicin) and 1078.45 (for biotin-dihydroeponemycin), assay probe-LMP2 adducts are expected to show a slower mobility as compared to free LMP2 (lanes 1-3, FIG. 5). […] It can be explained by a smaller molecular weight of compound 15 (484.76) compared to assay probes (828.08 and 1078.45). […] LMP2 inhibitor efficiently blocks the proteolytic activity of immunoproteasome with high specificity. Screening assay and mobility shift studies have shown that compound 15 selectively inactivates the LMP2 subunit via covalent modification. Since LMP2 is a major catalytic subunit responsible for chymotrypsin-like activity, inactivation of the LMP2 subunit inhibits proteolytic activity of immunoproteasome. Confirmation of this is provided by enzyme kinetics studies performed using purified 20S immunoproteasome. Enzyme kinetics experiments were also carried out with the purified 20S constitutive proteasome as control.
as §3

H460 (Lung) = test: Cell proliferation assay by counting cell numbers after 24 h incubation; type: cell-based; settings: cell number after 24 h incubation
Description: (§7) To compare the efficacy of the present LMP2 inhibitor compounds and, in particular, LMP2 inhibitor 15, as compared to prior known inhibitors, comparative tests were conducted using compound 21 in expressing tumor cells. LMP2 inhibitor compound 21 blocked proliferation of lung cancer H460, prostate cancer cells PC3 and multiple myeloma cells RPMI8226, as summarized in Table 2, below.

RPMI8226 (MM) = test: as above; type: cell-based; settings: cell number after 24 h incubation
Description: as §7

PC3 (Prostate) = test: as above; type: cell-based; settings: cell number after 24 h incubation
Description: as §7

WI-38 (Fibroblast) = test: as above; type: cell-based; settings: cell number after 24 h incubation
[2] = test system: proteasome subunits Z, MECL1, LMP7 and X; test: Competition screening assay in EL4 cells with biotin-epoxomicin probe, streptavidin-HRP western blot; type: binding, Murine; settings: 30 min pre-incubation, 1 hr probe
Description: as §1, §2
Preincubation of EL4 cells with 1 μM of compound 15 (one equivalent of assay probe) was sufficient to selectively modify the catalytic threonine residue of LMP2 subunit, thereby preventing further modification of LMP2 subunit by biotin-dihydroeponemycin, resulting in selective attenuation of LMP2 protein band on western blot.
Cell Culture and Screening Assay: Murine lymphoma EL4 (ATCC) cells were grown in RPMI medium (Gibco), 10% fetal bovine serum and 1% penicillin and streptomycin at […] in a 5% CO2 incubator. […] Cell lysates were analyzed by 12% SDS-PAGE and transferred to PVDF membrane. […]

CC(C)CCCCC(=O)N[C@@H](CO)C(=O)N[C@@H](CC(C)C)C(=O)[C@@]1(CO)CO1 [Dihydroeponemycin, dihydroeponemycin, reference compound]
Proteasome subunit binding and specificity, competition against biotin-dihydroeponemycin labelling [1]: LMP7/X and LMP2 protein bands are competed away; also recorded: do not have specificity towards subunits of either the constitutive or immunoproteasomes
Kobs/[I], 20S immunoproteasome (20S immunoproteasome; chymotrypsin-like activity): 251 ± 121 M^−1S^−1
Relative selectivity (20S immunoproteasome): 5
kinact/KI (20S regular proteasome; chymotrypsin-like activity, purified 20S constitutive proteasome): 721 ± 84 M⁻¹ s⁻¹

CCCCCCC(=O)N[C@@H](C)C(=O)N[C@@H](CC(C)C)C(=O)[C@@]1(CO[Si](C)(C)C(C)(C)C)CO1 [Compound 15]
Concentration sufficient to selectively modify the catalytic threonine residue of LMP2 subunit ([1]; EL4 cells preincubated, one equivalent of assay probe (biotin-dihydroeponemycin)): 1 µM
Proteasome subunit binding and specificity, competition against biotin-dihydroeponemycin labelling [1]: selectively targeting the immunoproteasome subunit LMP2; also recorded: even higher specificity towards the LMP2 subunit was obtained
Kobs/[I], 20S immunoproteasome (20S immunoproteasome; chymotrypsin-like activity): 83 ± 27 M^−1S^−1
higher selectivity toward the 20S immunoproteasome in comparison to dihydroeponemycin (20S immunoproteasome; chymotrypsin-like activity, versus dihydroeponemycin): 5 fold
higher selectivity toward the 20S immunoproteasome in comparison to epoxomicin (20S immunoproteasome; chymotrypsin-like activity, versus epoxomicin): 24 fold
Inhibition of chymotrypsin-like activity of 20S immunoproteasome (in words) (20S immunoproteasome; fluorogenic peptide substrate): displayed a better inhibitory activity against the immunoproteasome; also recorded: time- and concentration-dependent inhibition
Relative selectivity (20S immunoproteasome): 24
Inhibition of chymotrypsin-like activity of 20S regular proteasome (in words) (20S regular proteasome; fluorogenic peptide substrate): poorly inhibited the chymotrypsin-like activity of 20S regular proteasome
kinact/KI (20S regular proteasome): 49 ± 18 M⁻¹ s⁻¹
Covalent modification of LMP2, mobility shift of adduct on SDS PAGE (LMP2 subunit): covalently modify the immunoproteasome subunit LMP2
Covalent modification of LMP2, mobility shift of adduct on SDS PAGE (LMP2 subunit; listed as compound 15): slower mobility for the LMP2-15 adduct on SDS PAGE was clearly shown as compared to free LMP2
Concentration sufficient to modify LMP2 subunits present in cells (LMP2 subunit; mobility shift): 1 µM

CCCCCCC(=O)N[C@@H](CO)C(=O)N[C@@H](CC(C)C)C(=O)[C@@]1(COCOCCOC)CO1 [Compound 12]
Proteasome subunit binding and specificity, competition against biotin-dihydroeponemycin labelling [1]: selectively targeting the immunoproteasome subunit LMP2; also recorded: high specificity towards LMP2 was achieved

CCCCCCC(=O)N[C@@H](C)C(=O)N[C@@H](CC(C)C)C(=O)[C@@]1(CO)CO1 [Compound 9]
Proteasome subunit binding and specificity, competition against biotin-dihydroeponemycin labelling [1]: LMP7/X and LMP2 protein bands are competed away

CC[C@H](C)[C@H](NC(=O)[C@H]([C@@H](C)CC)N(C)C(C)=O)C(=O)N[C@H](C(=O)N[C@@H](CC(C)C)C(=O)[C@@]1(C)CO1)[C@@H](C)O [Epoxomicin, epoxomicin]
Kobs/[I], 20S immunoproteasome (20S immunoproteasome; chymotrypsin-like activity): 3,044 ± 1,423 M^−1S^−1
IC50 (H460 (Lung)): 100 nM
IC50 (RPMI8226 (MM)): 100 nM
IC50 (PC3 (Prostate)): 10 nM
IC50 (WI-38 (Fibroblast)): 28 nM
Proteasome subunit binding, competition against biotin-epoxomicin labelling [2]: proteasome subunit (Z, MECL1, LMP7 and X) bands are efficiently competed away
Proteasome subunit binding, competition against biotin-epoxomicin labelling ([2]; listed as epoximicin): do not have specificity towards subunits of either the constitutive or immunoproteasomes

CCCCCCC(=O)N[C@@H](CO)C(=O)N[C@@H](CC(C)C)C(=O)[C@@]1(COCOC)CO1 [Compound 11]
Proteasome subunit binding and specificity, competition against biotin-dihydroeponemycin labelling [1]: do not selectively target proteasome subunits; also recorded: dramatic loss in the potency and specificity compared to dihydroeponemycin
